Results on two compounds are retold here after PMC6165277 (2018).

Assay [1] deals with ATP-binding aptamer incorporated DNA scaffold (DNA, duplex) ACCTGGGGGAGTATTGCGGAGGAAGGT/ACCTTCCTCCGCAATACTCCCCCAGGT
Description: Dox fluorescence recovery (release of intercalated Dox). The conditions noted are these: indirect; Dox/DNA mass ratio 1:10; recovery ~20, ~36, ~56% at 4, 8, 20 mM ATP.

The test system is the same in assay [2]. As to the kind of experiment: Dox fluorescence quenching titration. Conditions: aqueous solution; Dox 1 µg/mL; maximum quenching at Dox/DNA mass ratio ~1:9.8.

With `Nc1ncnc2c1ncn2[C@@H]1O[C@H](COP(=O)(O)OP(=O)(O)OP(=O)(O)O)[C@@H](O)[C@H]1O`, the binding result in assay [1] is “yes”.

As to `COc1cccc2c1C(=O)c1c(O)c3c(c(O)c1C2=O)C[C@@](O)(C(=O)CO)C[C@@H]3O[C@H]1C[C@H](N)[C@H](O)[C@H](C)O1`, the binding entry in assay [2] is “yes”.
